Experiments:
[1] = test system: L1210; test: In vitro inhibition of L1210 murine leukemia (Drug sensitivity was determined by counting surviving cells after 48 hr of continuous exposure to at least 4 conc. of drug); format: functional, cell-based; details: Mus musculus, L1210, 48 h
[2] = test system: Mus musculus; test: In vivo cytotoxicity against L1210 murine leukemia, expressed as median survival time of treated vs. untreated mice X 100 (CDF21 mice were given an injection of 105 cells i.p. and treated on day 1); format: functional
[3] = test system: Mus musculus; test: In vivo inhibition of L1210 murine leukemia, expressed as optimal dose (CDF21 mice were given an injection of 105 cells i.p. and treated on day 1); format: functional

Row | Structure (SMILES) | IC50 [1] [mg/L] | T/C [2] [%] | Optimal dose [3] [mg/kg]
1 | C=C(Br)C(=O)Nc1nc(C(=O)Nc2cc(C(=O)Nc3cc(C(=O)NCCC(=N)N)n(C)c3)n(C)c2)cs1.Cl | 23.8 |  | 
2 | Cl.Cn1cc(NC(=O)c2csc(NC(=O)c3ccc(N(CCCl)CCCl)cc3)n2)cc1C(=O)Nc1cc(C(=O)NCCC(=N)N)n(C)n1 | 7.2 |  | 
3 | Cl.Cn1cc(NC(=O)c2cc(NC(=O)c3cc(NC(=O)c4ccc(N(CCCl)CCCl)cc4)cn3C)cn2C)cc1C(=O)NCCC(=N)N [TALLIMUSTINE CHLORIDE] |  | 175 | 3.13
4 | Cl.Cn1cc(NC(=O)c2ccc(N(CCCl)CCCl)cc2)cc1C(=O)Nc1cc(C(=O)Nc2cc(C(=O)NCCC(=N)N)n(C)n2)n(C)c1 | 0.03 | 213 | 6.25
5 | Cl.Cn1cc(NC(=O)c2cc(NC(=O)c3csc(NC(=O)c4ccc(N(CCCl)CCCl)cc4)n3)cn2C)cc1C(=O)NCCC(=N)N | 32.5 |  | 
6 | Cl.Cn1cc(NC(=O)c2cc(NC(=O)c3cc(NC(=O)c4ccc(N(CCCl)CCCl)cc4)nn3C)cn2C)cc1C(=O)NCCC(=N)N | 1.39 | 118 | 12.5
7 | C=C(Br)C(=O)Nc1cc(C(=O)Nc2cc(C(=O)Nc3cc(C(=O)NCCC(=N)N)n(C)c3)n(C)c2)n(C)n1.Cl | 0.15 | 181 | 30
8 | Cl.Cn1cc(NC(=O)c2ccc(N(CCCl)CCCl)cc2)cc1C(=O)Nc1cc(C(=O)Nc2cc(C(=O)NCCC(=N)N)n(C)n2)n(C)n1 | 0.11 | 259 | 25

Reference: ChEMBL document CHEMBL1151591, “Structure-activity relationship of novel tallimustine derivatives: synthesis and antitumor activity” (Bioorg Med Chem Lett, 1996)
